From US20200206198A1, “CFTR CHANNEL ACTIVATOR FOR USE IN THE TREATMENT AND/OR PREVENTION OF GLUTEN SENSITIVITY CONDITIONS” (priority 2017, published 2020)

Legend:
[1] = test system: gliadin-sensitive BALB/c mice; test: Gliadin-sensitive BALB/c mice, 4-week oral gliadin challenge; format: in vivo, mouse
Procedure: In the first model, BALB/c mice are fed for at least three generations with a gluten-free diet, followed by a 4-week gliadin challenge, as described (Papista, C., et al. 2012). Ten week-old BALB/c mice were orally challenged for 4 weeks with gliadin or vehicle in the presence or absence of 2 mM VX-770 administered intraperitoneally 15 min prior to gliadin challenge (n=10 per treatment group). […] Moreover, VX-770 opposed the ability of gliadin to increase TG2 protein levels (FIG. 9c) and ERK 1/2 phosphorylation (FIG. 9d).
BALB/c mice (background BALB/cAnNCrl) were purchased from Charles River (Varese, Italy). Three generation gluten-free diet (Mucedola srl, Milan), male and female, were challenged with gliadin for 4 weeks. To assess the effects of VX-770 into a controlled environment, mice were challenged via gavage for 4 weeks with i) vehicle alone or ii) gliadin (SigmaAldich, G3375) (5 mg/daily for one week and then 5 mg/daily thrice a week for 3 weeks)(Moon, S. H., et al. 2016) in the presence or absence of intraperitoneal VX770 (0.075 mg/mice in 100 μl DMSO, 2 mM, SelleckchemS1144) or genistein (25 mg\kg in 100μ1 DMSO, SigmaAldrich), administered 15 minutes prior gliadin challenge (n=10 mice per group of treatment).
At the end of the last daily treatment, mice were anesthetized with Avertine (tribromoethanol, 250 mg/kg, Sigma Aldrich, T48402) and then killed; the intestines were collected for CFTR function analysis or stored for all described techniques.
Chambers for mounting either transwell cell cultures or mouse tissue biopsies were obtained from Physiologic Instruments (model P2300, San Diego, Calif., USA). Chamber solution was buffered by bubbling with identical Ringer solution on both sides and were maintained at 37° C., vigorously stirred, and gassed with 95% O2/[…]. Cells or tissues were short circuited using Ag/AgCl agar electrodes. A basolateral-to-apical chloride gradient was established by replacing NaCl with Na-gluconate in the apical (luminal) compartment to create a driving force for CFTR-dependent Cl secretion. To measure stimulated Isc, the changed sodium gluconate solution was supplied with 100 μM amiloride. Agonists (forskolin) were added to the bathing solutions as indicated (for a minimum 5 min of observation under each condition) to activate CFTR channels present at the apical surface of the epithelium (either cell surface or lumen side of the tissue) and CFTRInh-172 (10 μM) was added to the mucosal bathing solution to block CFTR-dependent Isc. Shortcircuit current (expressed as Isc (μA/cm2)) and resistance were acquired or calculated using the VCC600 transepithelial clamp from Physiologic Instruments and the Acquire & Analyze 2.3 software for data acquisition (Physiologic Instruments), as previously described Tosco A, et al. 2016; Romani, L. et al. 2017).
The whole lysate or membrane fraction proteins of cell lines and mice intestine homogenates were obtained from treated and untreated cells or mice as described. The equal amount of protein were resolved by SDS-PAGE gel and blotted with antibodies against: SQSTM1, (Sigma Aldrich, 108k4767) 1:1000, PPARγ (Santa Cruz Biotechnology, sc7273) 1:500, BECN1 (Abcam, ab58878) 1:1000, CFTR clone M3A7 (Abcam, ab4067) 1:500, phospho-ERK1/2 (php42/44, Cell Signaling Technology, #91101) 1:1000, UVRAG (Santa Cruz Biotechnology sc8215) 1:1000, NHERF-1 (BD, 611161) 1:1000, EZRIN (BD, 610603) 1:1000, hVps34 (SigmaV9764) 1:300, biotin (Abcam, ab1227) 1:2000, PKAr2a (BD, 610625) 1:500, Ubiquitin (Cell Signaling clone P4D1, #3936) 1:1000, CHIP (Calbiochem PC711) 1:500, Caspase-1 p10 (M-20) (Santa Cruz Biotechnology, sc-514) 1:200, NLRP3 (Abcam, ab4207), 1:500, IDO1 (monoclonal; cv152) 1:1000^[80], used as primary antibodies. Normalization was performed by probing the membrane with anti-β-actin (Cell Signaling, #4970) 1:1000, anti-Gapdh (Sigma-Aldrich, G8795) 1:1000 and anti-flottilin (Abcam ab15148) 1:1000 antibodies. […]

[2] = test system: NOD mice transgenic for HLA DQ8 (NOD-DQ8); test: NOD-DQ8 mice orally challenged with gliadin; format: in vivo, mouse
Excerpt: In the second model of gluten sensitivity, the Applicant resorted to non-obese diabetic (NOD) female mice, which spontaneously develop autoimmune type-1 diabetes (Maurano, F., et al. 2005).
BALB/c mice (background BALB/cAnNCrl) were purchased from Charles River (Varese, Italy). Three generation gluten-free diet (Mucedola srl, Milan), male and female, were challenged with gliadin for 4 weeks. […]
Chambers for mounting either transwell cell cultures or mouse tissue biopsies were obtained from Physiologic Instruments (model P2300, San Diego, Calif., USA). […] Shortcircuit current (expressed as Isc (μA/cm2)) and resistance were acquired or calculated using the VCC600 transepithelial clamp from Physiologic Instruments and the Acquire & Analyze 2.3 software for data acquisition (Physiologic Instruments), as previously described Tosco A, et al. 2016; Romani, L. et al. 2017).
ELISA analysis was performed on tissue samples using standard ELISA kits (R&D Systems) for IL-15, IL-17A, INFγ IL21, IL10, TGF-β. […] Samples were read in triplicate at 450 nm in a Microplate Reader (BioRad, Milan, Italy) using Microplate Manager 5.2.1 software. Values were normalized to protein concentration evaluated by Bradford analysis. […]

[3] = BALB/c mice small intestine homogenates

With `CC(C)(C)c1cc(C(C)(C)C)c(NC(=O)c2c[nH]c3ccccc3c2=O)cc1O` [VX-770, N-(2,4-di-tert-butyl-5-hydroxyphenyl)-4-oxo-1,4-dihydroquinoline-3-carboxamide] the “effect on gliadin induced expression of IL-21” value ([1]; BALB/c mice) was “inhibited”, the “effect on gliadin-induced NLRP3 expression” value ([1]; BALB/c mice small intestine) was “counteracted” and the “effect on gliadin-induced caspase 1 cleavage” value ([1]; BALB/c mice small intestine) was “counteracted”. For the same molecule, the “effect on increased NKG2D expression by intraepithelial lymphocytes” value ([1]; BALB/c mice small intestine) was “counteracted”, the “Th1 transcription factor Tbet transcript” value [1, 3] was “downregulated” and the “Th17 transcription factor Rorc transcript” value [1, 3] was “downregulated”. For the same molecule, the “effect on gliadin-induced decrease of CFTR function in small intestines” value ([1]; BALB/c mice, 2 mM VX-770 i.p. 15 min prior to gliadin) was “inhibitable”, the “effect on gliadin-induced ERK 1/2 phosphorylation” value ([1]; BALB/c mice, VX-770 i.p.) was “opposed” and the “effect on gliadin-induced increase of TG2 protein levels” value ([1]; BALB/c mice, VX-770 i.p.) was “opposed”. For the same molecule, the “effect on gliadin-induced increase of IFN-γ mRNA and protein” value ([1]; BALB/c mice, p<0.001) was “prevented”, the “effect on gliadin-induced increase of IL-15 mRNA and protein” value ([1]; BALB/c mice, p<0.001) was “prevented” and the “effect on gliadin-induced increase of IL-17A mRNA and protein” value ([1]; BALB/c mice, p<0.001) was “prevented”. The IL-10 production ([1]; gliadin-sensitive mice, ELISA) was “restored”, the TGF-β production ([1]; gliadin-sensitive mice, ELISA) was “restored” and the “effect on gliadin-induced increase of IFN-γ” value [2] was “counteracted the gliadin-induced increase of IFN-γ”.
